Laboratory results: patent US20230381142A1, “ANTILEISHMANIAL COMPOUNDS, COMPOSITIONS AND USE THEREOF” (TRUSTEES OF BOSTON UNIVERSITY, priority 2022, published 2023)

Key:
[1] = system: L. donovani intracellular amastigotes infecting THP-1 macrophages; assay: GSK intramacrophage L. donovani assay (LD AMMAC, inMac; Assay Conditions C); type: cell-based; details: Leishmania donovani; THP-1 cells; values marked c; read-out: L. donovani amastigotes EC50 (THP-1 cells)
Procedure: Assay Conditions C: The intramacrophage Leishmania donovani activity assay was performed as described in Antimicrob Agents Chemother (2013) 57(7):2913-22.
(§1) The intramacrophage Leishmania donovani activity assay (LD AMMAC) at GlaxoSmithKline was performed as described.
(§2) Given the literature precedents described above and the apparent narrow tolerance for R^3 substitutions observed in the primary screen compounds, a thorough and methodical assessment was undertaken of tolerated groups at the three points of diversity (R^1/R^2/R^3) for the core. At this stage of the project, all analogues were assessed using a battery of assays performed in-house at GlaxoSmithKline. For antileishmanial activity, GSK's inMac assay was utilized. This assay provides two readouts of compound potency: average number of intracellular amastigotes per infected cell (AMMAC) EC50, percentage of infected cells per well (INFCELL) EC50, as well as a toxicity output derived from the number of host cells (MAC EC50). In addition, compounds were assessed for toxicity against HepG2 cells (HEPG2 EC50). Here, AMMAC EC50 values were focused on for relative potency assessments. […] It should be noted that for all compounds assessed in this project, the measured toxicity against THP-1 macrophages either equaled or exceeded that of HepG2 hepatocytes, therefore the MAC SI is used here as the more conservative estimate of therapeutic index.

[2] = GSK inMac assay, host cell toxicity readout (LD MAC); type: cell-based, human; details: human; footnote c; read-out: THP-1 Host Cell CC50
Procedure: as §1, §2

Question: For `CC(C)Cc1n[nH]c2c1C(c1ccc(F)cc1)N(c1ccc(F)cc1F)C2=O` (centres unmarked) [CMLD011097], which EC50 [1] is on record?
Answer: The EC50 was 12.6 µM.

Question: What about the CC50 [2] of the same molecule?
Answer: Its CC50 is 39.8 µM.

Question: Which results are given for `CC(C)Cc1n[nH]c2c1C(c1ccc(F)cc1)N(c1cccnc1)C2=O` (centres unmarked) [CMLD011098]?
Answer: EC50 [1]: 25.1 µM; CC50 [2]: > 50 µM

Question: With `COc1ccc(N2C(=O)c3[nH]nc(CC(C)C)c3C2c2cccc(Cl)c2)cc1` (centres unmarked) [CMLD011099] as the molecule, how does the EC50 [1] read?
Answer: The EC50 was 7.9 µM.

Question: What about the CC50 [2] of the same molecule?
Answer: Its CC50 is 39.8 µM.

Question: With `COc1ccc(N2C(=O)c3[nH]nc(CC(C)C)c3C2c2ccccc2F)cc1` (centres unmarked) [CMLD011102] as the molecule, how does the EC50 [1] read?
Answer: Its EC50 is 3.2 µM.

Question: What about the CC50 [2] of the same molecule?
Answer: Its CC50 is 31.6 µM.

Question: For `COc1ccc(N2C(=O)c3[nH]nc(CC(C)C)c3C2c2ccccc2Cl)c(OC)c1` (centres unmarked) [CMLD011103], which EC50 [1] is on record?
Answer: The EC50 was 10 µM.

Question: What about the CC50 [2] of the same molecule?
Answer: Its CC50 is 20 µM.

Question: With `COc1ccc(N2C(=O)c3[nH]nc(CC(C)C)c3C2c2ccsc2)cc1` (centres unmarked) [CMLD011104] as the molecule, how does the EC50 [1] read?
Answer: The EC50 was 6.3 µM.

Question: And the CC50 [2]?
Answer: Its CC50 is greater than 50 µM.

Question: For `CC(C)Cc1n[nH]c2c1C(c1ccc(F)cc1)N(c1ccc3c(c1)OC(F)(F)O3)C2=O` (centres unmarked) [CMLD011105], which EC50 [1] is on record?
Answer: The EC50 was 2.5 µM.

Question: What about the CC50 [2] of the same molecule?
Answer: The CC50 was 12.6 µM.

Question: For `COc1ccc(N2C(=O)c3[nH]nc(CC(C)C)c3C2c2cccc(C(F)(F)F)c2)cc1F` (centres unmarked) [CMLD011106], which EC50 [1] is on record?
Answer: The EC50 was 6.3 µM.

Question: And the CC50 [2]?
Answer: The CC50 was 25.1 µM.

Question: For `COc1ccc(N2C(=O)c3[nH]nc(CC(C)C)c3C2c2ccccc2Br)c(OC)c1` (centres unmarked) [CMLD011109], which EC50 [1] is on record?
Answer: The EC50 was 6.3 µM.

Question: And the CC50 [2]?
Answer: The CC50 was 15.8 µM.

Question: With `COc1ccc(N2C(=O)c3[nH]nc(CC(C)C)c3C2c2cccs2)cc1` (centres unmarked) [CMLD011110] as the molecule, how does the EC50 [1] read?
Answer: The EC50 was 7.9 µM.

Question: And the CC50 [2]?
Answer: Its CC50 is greater than 50 µM.

Question: For `CC(C)Cc1n[nH]c2c1C(c1ccccc1Br)N(c1ccc(F)cc1)C2=O` (centres unmarked) [CMLD011111], which EC50 [1] is on record?
Answer: The EC50 was 4 µM.

Question: What about the CC50 [2] of the same molecule?
Answer: The CC50 was 15.8 µM.

Question: For `COc1ccccc1N1C(=O)c2[nH]nc(CC(C)C)c2C1c1ccccc1Br` (centres unmarked) [CMLD011112], which EC50 [1] is on record?
Answer: The EC50 was 12.6 µM.

Question: And the CC50 [2]?
Answer: The CC50 was 25.1 µM.

Question: Which EC50 [1] does the source give for `CC(C)Cc1n[nH]c2c1C(c1ccc(F)cc1)N(c1ccc(F)cc1)C2=O` (centres unmarked) [CMLD011113] here?
Answer: Its EC50 is 6.3 µM.

Question: What about the CC50 [2] of the same molecule?
Answer: Its CC50 is 25.1 µM.

Question: With `COc1ccc(N2C(=O)c3[nH]nc(CC(C)C)c3C2c2cccc(C(F)(F)F)c2)c(OC)c1` (centres unmarked) [CMLD011115] as the molecule, how does the EC50 [1] read?
Answer: The EC50 was 12.6 µM.

Question: What about the CC50 [2] of the same molecule?
Answer: Its CC50 is 20 µM.

Question: Which results are given for `COc1cc(N2C(=O)c3[nH]nc(CC(C)C)c3C2c2ccccc2Cl)cc(OC)c1OC` (centres unmarked) [CMLD011116]?
Answer: EC50 [1]: 5 µM; CC50 [2]: 6.3 µM

Question: Which EC50 [1] does the source give for `COCCN1C(=O)c2[nH]nc(CC(C)C)c2C1c1ccc(F)cc1` (centres unmarked) [CMLD011117] here?
Answer: The EC50 was greater than 50 µM.

Question: What about the CC50 [2] of the same molecule?
Answer: The CC50 was greater than 50 µM.

Question: Which EC50 [1] does the source give for `CC(C)Cc1n[nH]c2c1C(c1cccc(C(F)(F)F)c1)N(c1ccc(F)cc1)C2=O` (centres unmarked) [CMLD011119] here?
Answer: Its EC50 is 2.5 µM.

Question: What about the CC50 [2] of the same molecule?
Answer: Its CC50 is 25.1 µM.

Question: For `COc1ccc(N2C(=O)c3[nH]nc(CC(C)C)c3C2c2ccc(F)c(C)n2)cc1` (centres unmarked) [CMLD011120], which EC50 [1] is on record?
Answer: The EC50 was 12.6 µM.

Question: What about the CC50 [2] of the same molecule?
Answer: Its CC50 is greater than 50 µM.

Question: What does the source list for `COc1ccc(N2C(=O)c3[nH]nc(CC(C)C)c3C2c2ccc(C(F)(F)F)cc2)cc1` (centres unmarked) [CMLD011121]?
Answer: EC50 [1]: 8 µM; CC50 [2]: 15.9 µM

Question: With `CC(C)Cc1n[nH]c2c1C(c1cccc(C(F)(F)F)c1)N(c1ccc(C(C)(C)C)cc1)C2=O` (centres unmarked) [CMLD011122] as the molecule, how does the EC50 [1] read?
Answer: Its EC50 is 6.3 µM.

Question: And the CC50 [2]?
Answer: The CC50 was 10 µM.

Question: For `CC(C)Cc1n[nH]c2c1[C@@H](c1ccc(F)cc1)N([C@H]1CC[C@H](N(C)C)CC1)C2=O` [CMLD011124], which EC50 [1] is on record?
Answer: Its EC50 is 25.1 µM.

Question: What about the CC50 [2] of the same molecule?
Answer: The CC50 was greater than 50 µM.

Question: With `COc1ccc(N2C(=O)c3[nH]nc(CC(C)C)c3C2c2ccccn2)cc1` (centres unmarked) [CMLD011125] as the molecule, how does the EC50 [1] read?
Answer: Its EC50 is 31.6 µM.

Question: What about the CC50 [2] of the same molecule?
Answer: The CC50 was greater than 50 µM.

Question: With `CC(C)Cc1n[nH]c2c1C(c1cccc(C(F)(F)F)c1)N(CCN1CCCC1)C2=O` (centres unmarked) [CMLD011126] as the molecule, how does the EC50 [1] read?
Answer: Its EC50 is 20 µM.

Question: And the CC50 [2]?
Answer: Its CC50 is 39.8 µM.

Question: For `CC(C)Cc1n[nH]c2c1C(c1ccc(F)cc1)N(CC1CCN(C)C1)C2=O` (centres unmarked) [CMLD011129], which EC50 [1] is on record?
Answer: Its EC50 is greater than 50 µM.

Question: And the CC50 [2]?
Answer: Its CC50 is greater than 50 µM.

Question: Which results are given for `COc1ccccc1N1C(=O)c2[nH]nc(CC(C)C)c2C1c1ccccc1Cl` (centres unmarked) [CMLD011130]?
Answer: EC50 [1]: 15.8 µM; CC50 [2]: 25.1 µM

Question: What does the source list for `CC(C)Cc1n[nH]c2c1C(c1cccc(Cl)c1)N(c1ccc(C(C)(C)C)cc1)C2=O` (centres unmarked) [CMLD011131]?
Answer: EC50 [1]: 2.5 µM; CC50 [2]: 15.8 µM

Question: What does the source list for `CC(C)Cc1n[nH]c2c1C(c1cccc(Cl)c1)N(c1ccc3c(c1)OCO3)C2=O` (centres unmarked) [CMLD011132]?
Answer: EC50 [1]: 5 µM; CC50 [2]: 20 µM

Question: For `COc1cccc(N2C(=O)c3[nH]nc(CC(C)C)c3C2c2cccc(Cl)c2)c1` (centres unmarked) [CMLD011133], which EC50 [1] is on record?
Answer: Its EC50 is 5 µM.

Question: What about the CC50 [2] of the same molecule?
Answer: Its CC50 is 25.1 µM.

Question: Which EC50 [1] does the source give for `COc1ccccc1N1C(=O)c2[nH]nc(CC(C)C)c2C1c1cccc(Cl)c1` (centres unmarked) [CMLD011134] here?
Answer: Its EC50 is 7.9 µM.

Question: And the CC50 [2]?
Answer: Its CC50 is 15.8 µM.

Question: Which EC50 [1] does the source give for `CC(C)Cc1n[nH]c2c1C(c1ccsc1)N(c1ccc(C(C)(C)C)cc1)C2=O` (centres unmarked) [CMLD011135] here?
Answer: The EC50 was 4 µM.

Question: And the CC50 [2]?
Answer: The CC50 was greater than 50 µM.

Question: With `COc1ccc(N2C(=O)c3[nH]nc(CC(C)C)c3C2c2ccsc2)cn1` (centres unmarked) [CMLD011137] as the molecule, how does the EC50 [1] read?
Answer: The EC50 was 10 µM.

Question: What about the CC50 [2] of the same molecule?
Answer: The CC50 was 25.1 µM.
